Measurements from patent US12304932B2, “PACAP stabilized peptide” (SENJU PHARMACEUTICAL CO., LTD., priority 2017, dated 2025).
Square brackets hold non-standard residues; d marks the D form. Peptide text beside a SMILES is read from it. * marks the point of attachment. Ala(1H-tetrazol-5-yl) = N[C@@H](Cc1nnn[nH]1)C(=O)O; Nle = CCCC[C@H](N)C(=O)O; Ms = CS(=O)(=O)*

Tests used:
Assay type in all cases: physicochemical
[1] = Peptide stability test 1: aqueous solution, phosphate buffer pH 7.0, stored at 40° C., HPLC conditions 1; conditions: phosphate buffer pH 7.0, 40° C.; for survival rate after correction for water, 40° C., 1-month storage / survival rate after correction for water, 40° C., 2-month storage: 100 μM peptide; for survival rate after correction for water, 40° C., 2-month storage: 2 months
Procedure: Peptides 1 and 3 to 5 synthesized in Example 2 were weighed and dissolved in phosphate buffer (pH 7.0) to prepare 1.0 mM peptide solutions. The 1.0 mM peptide solutions were then diluted with phosphate buffer to 100 μM. After filtering with. Chromatdisk (product of Merck Millipore, Millex-GV, 0.22 μm), each filtrate was dispensed into an LC vial (Waters Deactivated Qsert Vial). The prepared peptide solutions were incubated for one month or 2 months in a 40° C. thermostatic bath to obtain stored samples. A simultaneously prepared sample among the peptide solutions that was not stored was used as a standard sample (initial sample). The standard sample and the stored samples were stored at −30° C. until sample analysis.
Using the total weight of the aqueous peptide solution and storage vessel as the specimen weight, measurements were recorded as the specimen weights before storage and the specimen weights after storage under different storage conditions. The empty weight of the storage vessel was also measured, and the moisture permeability was determined by the following formula.
After stirring the standard sample and the stored samples on a vortex mixer, each peptide solution was transferred to an HPLC vial (Deactivated Qsert vial by Waters Co.). Reverse-phase HPLC (HPLC system: Prominence by Shimadzu Corp.) was conducted under the conditions shown in Table 3 below for analysis of the_peptide solutions, and chromatograms were obtained.
(§1) Column: XSelect CSH C18 by Waters Co., 5 μm, 4.6×250 mm
Guard column: XSelect CSH C18 by Waters. Co., 5 μm, 4.6×20 mm Guard Cartridge
(§2) Detection wavelength: 220 nm
(§3) Mobile phase A: 0.1% formic acid in water
(§4) Mobile phase B: 0.1% formic acid in acetonitrile
Measuring time: 30 minutes
Measuring sample injection rate: 50 μL
(§5) Column temperature: 40° C.
Mobile phase delivery: The mixing ratio of mobile phase A and mobile phase B was varied as shown in Table 3 for linear concentration gradient control.
The peak area value for the peptide in the chromatogram was calculated, and the survival rate (survival rate before correction for water) was calculated using formula (2). The survival rate after correction for water was also calculated from the survival rate before correction for water using formula (3), taking into account the moisture permeability of the container.

[2] = Peptide stability tests 2 and 3: Tris buffer pH 7.0, stored at 60° C., HPLC conditions 2; conditions: 100 μM peptide, Tris buffer pH 7.0, 60° C.
Method in brief: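 Survival rate, corrected for water, was quantified by reversed-phase C18 HPLC (220 nm; formic acid water/acetonitrile gradient; 40° C. column) against an initial unstored standard. Samples were 100 μM peptide in pH 7.0 Tris stored 1–2 weeks at 60° C.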

[3] = Peptide stability test 4: phosphate buffer pH 7.0, stored at 40° C.; conditions: phosphate buffer pH 7.0, 40° C.; for survival rate after correction for water, 40° C., 1-month storage / survival rate after correction for water, 40° C., 2-month storage: 100 μM peptide; for survival rate after correction for water, 40° C., 2-month storage: 2 months
Procedure: Peptides 10 and 11 synthesized in Example 2 were weighed and dissolved in phosphate buffer (pH 7.0) to prepare 1.0 mM peptide solutions. The solutions were filtered with a Chromatdisk (product of Merck Millipore, Millex-GV, 0.22 Each filtrate was diluted to 100 μM with phosphate buffer (pH 7.0) and dispensed into a tube (Protein LoBind Tube by Eppendorf Co.). The prepared peptides were incubated for one month or 2 months in a 40° C. thermostatic bath to obtain stored samples. A simultaneously prepared sample among the peptide solutions that was not stored was used as a standard sample (initial sample). The standard sample and the stored samples were stored at −30° C. until sample analysis.
The survival rate after correction for water for each peptide among the stored samples was measured in the same manner as Example 4, and the results are shown in Table 8.

[4] = Peptide stability test 5: Tris buffer pH 7.0, stored at 60° C., HPLC conditions 3; conditions: 100 μM peptide, Tris buffer pH 7.0, 60° C.
Procedure: Peptide 26 synthesized in Example 2 was weighed and dissolved in Tris buffer (pH 7.0) to prepare 1.0 mM peptide solutions. Each solution was filtered with a Chromatdisk (product of Merck Millipore, Millex-GV, 0.22 μm). The filtrate was diluted to 100 μM with Tris buffer (pH 7.0) and dispensed into a tube (Protein LoBind Tube by Eppendorf Co.). The prepared peptide solutions were incubated for one week or 2 weeks in a 60° C. thermostatic bath to obtain stored samples. A simultaneously prepared sample among the peptide solutions that was not stored was used as a standard sample (initial sample). The standard sample and the stored samples were stored at −30° C. until sample analysis.
The stored sample was measured under the following HPLC analysis conditions 3, and the survival rate alter correction for water for the peptide among the stored samples was calculated in the same manner as Example 3.
as §1
Guard column: XSelect CSH C18 by Waters Co., 5 4.6×20 mm Guard Cartridge
as §2, §3, §4
Measuring time: 20 minutes
Measuring sample injection volume: 50 μL
as §5
Mobile phase delivery: The mixing ratio of mobile phase A and mobile phase B was varied as shown in Table 9 for linear concentration gradient control.

SMILES	survival rate after correction for water, 40° C., 1-month storage [1] [%]	survival rate after correction for water, 40° C., 2-month storage [1] [%]	stability in aqueous solution, in words [1]	survival rate after correction for water, 40° C., 1-month storage [3] [%]	survival rate after correction for water, 40° C., 2-month storage [3] [%]	stability in aqueous solution, in words [3]	also measured
CC[C@H](C)[C@H](NC(=O)CNC(=O)[C@H](CC(=O)O)NC(=O)[C@H](CO)NC(=O)[C@@H](N)Cc1c[nH]cn1)C(=O)N[C@@H](Cc1ccccc1)C(=O)N[C@H](C(=O)N[C@@H](CC(=O)O)C(=O)N[C@@H](CO)C(=O)N[C@@H](Cc1ccc(O)cc1)C(=O)N[C@@H](CO)C(=O)N[C@@H](CCCNC(=N)N)C(=O)N[C@@H](Cc1ccc(O)cc1)C(=O)N[C@@H](CCCNC(=N)N)C(=O)N[C@@H](CCCCN)C(=O)N[C@@H](CCC(N)=O)C(=O)N[C@@H](CCSC)C(=O)N[C@@H](C)C(=O)N[C@H](C(=O)N[C@@H](CCCCN)C(=O)N[C@@H](CCCCN)C(=O)N[C@@H](Cc1ccc(O)cc1)C(=O)N[C@@H](CC(C)C)C(=O)N[C@@H](C)C(=O)N[C@@H](C)C(=O)N[C@H](C(=O)N[C@@H](CC(C)C)C(N)=O)C(C)C)C(C)C)[C@@H](C)O [Peptide 1, reference compound]	37.4	21.3					survival rate after correction for water, 60° C., 1-week storage ([2]; 1 week): 26.6%; survival rate after correction for water, 60° C., 2-week storage ([2]; 2 weeks): 15.8%
CC[C@H](C)[C@H](NC(=O)CNC(=O)[C@H](CC(=O)O)NC(=O)[C@H](CO)NC(=O)[C@@H](N)Cc1c[nH]cn1)C(=O)N[C@@H](Cc1ccccc1)C(=O)N[C@H](C(=O)N[C@@H](Cc1nnn[nH]1)C(=O)N[C@@H](CO)C(=O)N[C@@H](Cc1ccc(O)cc1)C(=O)N[C@@H](CO)C(=O)N[C@@H](CCCNC(=N)N)C(=O)N[C@@H](Cc1ccc(O)cc1)C(=O)N[C@@H](CCCNC(=N)N)C(=O)N[C@@H](CCCCN)C(=O)N[C@@H](CCC(N)=O)C(=O)N[C@@H](CCSC)C(=O)N[C@@H](C)C(=O)N[C@H](C(=O)N[C@@H](CCCCN)C(=O)N[C@@H](CCCCN)C(=O)N[C@@H](Cc1ccc(O)cc1)C(=O)N[C@@H](CC(C)C)C(=O)N[C@@H](C)C(=O)N[C@@H](C)C(=O)N[C@H](C(=O)N[C@@H](CC(C)C)C(N)=O)C(C)C)C(C)C)[C@@H](C)O [Peptide 4] (H-HSDGIFT[Ala(1H-tetrazol-5-yl)]SYSRYRKQMAVKKYLAAVL-NH2)	42.8	28.2	increased stability compared to peptide 1				
CC[C@H](C)[C@H](NC(=O)CNC(=O)[C@H](Cc1nnn[nH]1)NC(=O)[C@H](CO)NC(=O)[C@@H](N)Cc1c[nH]cn1)C(=O)N[C@@H](Cc1ccccc1)C(=O)N[C@H](C(=O)N[C@@H](Cc1nnn[nH]1)C(=O)N[C@@H](CO)C(=O)N[C@@H](Cc1ccc(O)cc1)C(=O)N[C@@H](CO)C(=O)N[C@@H](CCCNC(=N)N)C(=O)N[C@@H](Cc1ccc(O)cc1)C(=O)N[C@@H](CCCNC(=N)N)C(=O)N[C@@H](CCCCN)C(=O)N[C@@H](CCC(N)=O)C(=O)N[C@@H](CCSC)C(=O)N[C@@H](C)C(=O)N[C@H](C(=O)N[C@@H](CCCCN)C(=O)N[C@@H](CCCCN)C(=O)N[C@@H](Cc1ccc(O)cc1)C(=O)N[C@@H](CC(C)C)C(=O)N[C@@H](C)C(=O)N[C@@H](C)C(=O)N[C@H](C(=O)N[C@@H](CC(C)C)C(N)=O)C(C)C)C(C)C)[C@@H](C)O [Peptide 5] (H-HS[Ala(1H-tetrazol-5-yl)]GIFT[Ala(1H-tetrazol-5-yl)]SYSRYRKQMAVKKYLAAVL-NH2)	94.7	85.6	further increased stability over peptide 3 and peptide 4				
CC[C@H](C)[C@H](NC(=O)CNC(=O)[C@H](Cc1nnn[nH]1)NC(=O)[C@H](CO)NC(=O)[C@H](Cc1c[nH]cn1)NC(C)=O)C(=O)N[C@@H](Cc1ccccc1)C(=O)N[C@H](C(=O)N[C@@H](Cc1nnn[nH]1)C(=O)N[C@@H](CO)C(=O)N[C@@H](Cc1ccc(O)cc1)C(=O)N[C@@H](CO)C(=O)N[C@@H](CCCNC(=N)N)C(=O)N[C@@H](Cc1ccc(O)cc1)C(=O)N[C@@H](CCCNC(=N)N)C(=O)N[C@@H](CCCCN)C(=O)N[C@@H](CCC(N)=O)C(=O)N[C@@H](CCSC)C(=O)N[C@@H](C)C(=O)N[C@H](C(=O)N[C@@H](CCCCN)C(=O)N[C@@H](CCCCN)C(=O)N[C@@H](Cc1ccc(O)cc1)C(=O)N[C@@H](CC(C)C)C(=O)N[C@@H](C)C(=O)N[C@@H](C)C(=O)N[C@H](C(=O)N[C@@H](CC(C)C)C(N)=O)C(C)C)C(C)C)[C@@H](C)O [Peptide 10] (Ac-HS[Ala(1H-tetrazol-5-yl)]GIFT[Ala(1H-tetrazol-5-yl)]SYSRYRKQMAVKKYLAAVL-NH2)				94.0	87.8	stabilized to the same degree	
CCCC[C@H](NC(=O)[C@H](CCC(N)=O)NC(=O)[C@H](CCCCN)NC(=O)[C@H](CCCNC(=N)N)NC(=O)[C@H](Cc1ccc(O)cc1)NC(=O)[C@H](CCCNC(=N)N)NC(=O)[C@H](CO)NC(=O)[C@H](Cc1ccc(O)cc1)NC(=O)[C@H](CO)NC(=O)[C@H](Cc1nnn[nH]1)NC(=O)[C@@H](NC(=O)[C@H](Cc1ccccc1)NC(=O)[C@@H](NC(=O)CNC(=O)[C@H](Cc1nnn[nH]1)NC(=O)[C@H](CO)NC(=O)[C@H](Cc1c[nH]cn1)NS(C)(=O)=O)[C@@H](C)CC)[C@@H](C)O)C(=O)N[C@@H](C)C(=O)N[C@H](C(=O)N[C@@H](CCCCN)C(=O)N[C@@H](CCCCN)C(=O)N[C@@H](Cc1ccc(O)cc1)C(=O)N[C@@H](CC(C)C)C(=O)N[C@@H](C)C(=O)N[C@@H](C)C(=O)N[C@H](C(=O)N[C@@H](CC(C)C)C(N)=O)C(C)C)C(C)C [Peptide 11] (Ms-HS[Ala(1H-tetrazol-5-yl)]GIFT[Ala(1H-tetrazol-5-yl)]SYSRYRKQ[Nle]AVKKYLAAVL-NH2)				94.2	88.8	stabilized to the same degree	
CC[C@H](C)[C@H](NC(=O)CNC(=O)[C@H](Cc1nnn[nH]1)NC(=O)[C@H](CO)NC(=O)[C@H](Cc1c[nH]cn1)NC(C)=O)C(=O)N[C@@H](Cc1ccccc1)C(=O)N[C@H](C(=O)N[C@@H](Cc1nnn[nH]1)C(=O)N[C@@H](C)C(=O)N[C@@H](Cc1ccc(O)cc1)C(=O)N[C@@H](CO)C(=O)N[C@@H](CCCNC(=N)N)C(=O)N[C@@H](Cc1ccc(O)cc1)C(=O)N[C@@H](CCCNC(=N)N)C(=O)N[C@@H](CCCCN)C(=O)N[C@@H](C)C(=O)N[C@@H](CC(C)C)C(=O)N[C@@H](C)C(=O)N[C@H](C(=O)N[C@@H](CCCCN)C(=O)N[C@@H](CCCCN)C(=O)N[C@@H](Cc1ccc(O)cc1)C(=O)N[C@@H](CC(C)C)C(=O)N[C@@H](C)C(=O)N[C@@H](C)C(=O)N[C@H](C(=O)N[C@@H](CC(C)C)C(N)=O)C(C)C)C(C)C)[C@@H](C)O [Peptide 26] (Ac-HS[Ala(1H-tetrazol-5-yl)]GIFT[Ala(1H-tetrazol-5-yl)]AYSRYRKALAVKKYLAAVL-NH2)							survival rate after correction for water, 60° C., 1-week storage ([4]; 1 week): 98.0%; survival rate after correction for water, 60° C., 2-week storage ([4]; 2 weeks): 94.8%
